Consider eleven molecules from ChEMBL document CHEMBL1201862, “PubChem BioAssay data set” (2004).

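1) Cells in 96-well plates. 2) Compound, 48 h, 5 concentrations. 3) Linear interpolation between surrounding doses. 4) Unreached endpoint = highest concentration. GI50 is the concentration that inhibits growth by half.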 Calls of active or inactive are those of the source. Rule as the data show it: active = GI50 up to about 1.1 µM and inactive = higher.

Test systems include CCRF-CEM; IGROV-1; HOP-92; UO-31; HT-29; SR; OVCAR-8; OVCAR-5; SW-620; K562; SF-295; T47D; NCI/ADR-RES; NCI-H460; SK-MEL-28; HL-60; HCT-116; U-251; HOP-62.
Experiment in all cases: NCI tumour cell line growth inhibition, 48 h

Turning to `CCN1C[C@]2(COC)[C@H](O)C[C@H](OC)[C@]34C1[C@H]([C@H](OC)[C@H]23)[C@]1(OC(C)=O)[C@H]2[C@@H](OC(=O)c3ccccc3)[C@](O)(C[C@H]24)[C@@H](OC)[C@@H]1O`, the GI50 in the test on CCRF-CEM, with IGROV-1, with HOP-92, with UO-31, with HT-29 and in the test on SR was > 100 µM (inactive) in each case. Moreover, the GI50 with OVCAR-8, in the test on OVCAR-5, with SW-620, with K562, in the test with SF-295 and in the test with T47D was > 100 µM (inactive) in each case. Also, the GI50 in the test on NCI/ADR-RES, in the test on NCI-H460, in the test with SK-MEL-28, in the test on HL-60, in the test on HCT-116 and in the test on U-251 was > 100 µM (inactive) in each case.
As for `Cc1cc2cc3c(Cl)c(CCCl)c(C)nc3cc2c(Cl)c1CCCl`, the GI50 in the test on CCRF-CEM was 23.4 µM (inactive); with IGROV-1 it was 26.2 µM (inactive); in the test with HOP-92, 13.9 µM (inactive); in the test with UO-31, 16.1 µM (inactive); in the test with HT-29, 18.5 µM (inactive); in the test on SR, 11.3 µM (inactive). Besides, the GI50 in the test with OVCAR-8 was 24.1 µM (inactive); in the test on HOP-62 it was 13.8 µM (inactive); in the test with SW-620, 24.8 µM (inactive); with K562, 17.4 µM (inactive); with SF-295, 17.2 µM (inactive); with T47D, 15.8 µM (inactive). For the same molecule, the GI50 with NCI/ADR-RES is 22.9 µM (inactive); in the test on NCI-H460 it was 14.7 µM (inactive); in the test on SK-MEL-28, 18 µM (inactive); with HL-60, 11.5 µM (inactive); in the test with HCT-116 it was 15.8 µM (inactive); in the test on U-251 it was 23.5 µM (inactive).
For the molecule `C=C1CCC2C(C)(CO)C(O)CCC2(C)C1CC(O)C1=CCOC1=O` (stereo not given), the GI50 was 22.9 µM (inactive) with CCRF-CEM; 61.1 µM (inactive) in the test on IGROV-1; > 100 µM (inactive) in the test with HOP-92; > 100 µM (inactive) in the test on UO-31; 35.7 µM (inactive) with HT-29; 18 µM (inactive) in the test with SR. In addition, the GI50 is 36.1 µM (inactive) in the test on OVCAR-8; > 100 µM (inactive) with OVCAR-5; > 100 µM (inactive) in the test on HOP-62; 19.8 µM (inactive) in the test on SW-620; 34.1 µM (inactive) in the test on K562; 46.2 µM (inactive) in the test on SF-295. The GI50 in the test on NCI-H460 was 49.9 µM (inactive); with SK-MEL-28 it was > 100 µM (inactive); with HL-60 it was 26.9 µM (inactive); in the test on HCT-116 it was 26.5 µM (inactive); with U-251, 17.3 µM (inactive).
Turning to `CCCC/C=C/C1Cc2ccccc2CN1S(=O)(=O)c1ccc(C)cc1` (stereo not given), the GI50 in the test on CCRF-CEM is 4.9 µM (inactive); with IGROV-1, 12.3 µM (inactive); in the test on HOP-92, 2.15 µM (inactive); with UO-31, 5.6 µM (inactive); in the test with HT-29, 7.8 µM (inactive); with SR, 2.77 µM (inactive). For the same molecule, the GI50 in the test with OVCAR-8 is 11.3 µM (inactive); in the test with OVCAR-5 it was 12.5 µM (inactive); with HOP-62 it was 31.5 µM (inactive); in the test on SW-620 it was 11.2 µM (inactive); in the test with K562, 3.64 µM (inactive); with SF-295, 13.9 µM (inactive). The GI50 with NCI-H460 was 12.7 µM (inactive); in the test with SK-MEL-28, 10.5 µM (inactive); in the test on HL-60, 1.84 µM (inactive); in the test with HCT-116 it was 1.6 µM (inactive); in the test on U-251, 11.2 µM (inactive).
On to `O=C(CSc1nccc(=O)[nH]1)c1ccccc1`, for which the GI50 with IGROV-1, with HOP-92, in the test on UO-31, in the test with HT-29, in the test with SR and in the test on OVCAR-8 was > 100 µM (inactive) throughout. Moreover, the GI50 with OVCAR-5 is > 100 µM (inactive); with HOP-62, 63.1 µM (inactive); with SW-620 it was > 100 µM (inactive); with K562, > 100 µM (inactive); in the test with SF-295 it was 60.4 µM (inactive); in the test with T47D, > 100 µM (inactive). Moreover, the GI50 in the test on NCI/ADR-RES was 37.2 µM (inactive); with NCI-H460, 80.5 µM (inactive); in the test on SK-MEL-28, > 100 µM (inactive); in the test with HL-60, > 100 µM (inactive); in the test on HCT-116 it was > 100 µM (inactive); in the test with U-251 it was > 100 µM (inactive).
`COC1=C(C)C(=O)C2=C(C1=O)C1C3CC4=C(C(=O)C(OC)=C(C)C4=O)C(CNC(=O)C(C)=O)N3C(C#N)C(C2)N1C` (stereo not given): the GI50 in the test on CCRF-CEM was 0.00839 µM (active); with IGROV-1, 0.00424 µM (active); in the test with HOP-92 it was 0.00442 µM (active); with HT-29, 0.00388 µM (active); with OVCAR-8, 0.00661 µM (active); in the test with OVCAR-5 it was 0.0172 µM (active). For the same molecule, the GI50 with HOP-62 is 0.0215 µM (active); with SW-620, 0.00246 µM (active); with K562 it was 0.00153 µM (active); in the test with SF-295, 0.0202 µM (active); with T47D, < 0.001 µM (active); in the test on NCI/ADR-RES, 0.296 µM (active). In addition, the GI50 is 0.0101 µM (active) in the test on NCI-H460; 0.00511 µM (active) with SK-MEL-28; 0.00328 µM (active) in the test on HL-60; 0.00711 µM (active) in the test on HCT-116; 0.00811 µM (active) in the test with U-251.
On to `NCC1(N2CCOCC2)C2CCCC21CO` (stereo not given), for which the GI50 in the test on CCRF-CEM, with IGROV-1, in the test with HOP-92, in the test with UO-31, with HT-29 and with SR was > 100 µM (inactive) in each case. Also, the GI50 with OVCAR-8, in the test with OVCAR-5, in the test on HOP-62, in the test on SW-620, in the test with K562 and in the test on SF-295 was > 100 µM (inactive) in each case. Also, the GI50 in the test on NCI-H460, in the test on SK-MEL-28, in the test on HL-60, in the test with HCT-116 and in the test on U-251 was > 100 µM (inactive) each time.
Take `CC(C)N(C(=O)C12C3C4C5C3C1(C(=O)N(C(C)C)C(C)C)C5(C#N)C42)C(C)C` (stereo not given): the GI50 in the test with CCRF-CEM is 22 µM (inactive); in the test with IGROV-1 it was > 100 µM (inactive); with HOP-92 it was > 100 µM (inactive); with UO-31, > 100 µM (inactive); in the test with HT-29 it was > 100 µM (inactive); in the test on SR, 17.9 µM (inactive). Besides, the GI50 with OVCAR-8 is > 100 µM (inactive); with OVCAR-5 it was > 100 µM (inactive); in the test with HOP-62 it was > 100 µM (inactive); in the test with SW-620 it was 17.9 µM (inactive); with K562 it was 33.7 µM (inactive); in the test on SF-295, > 100 µM (inactive). Moreover, the GI50 is 61 µM (inactive) in the test with NCI-H460; > 100 µM (inactive) in the test with SK-MEL-28; 21.1 µM (inactive) with HL-60; 38.4 µM (inactive) with HCT-116; > 100 µM (inactive) with U-251.
As to `OC(c1ccc(C(F)(F)F)cc1)C(F)(F)c1nc2ccccc2o1` (stereo not given), the GI50 with CCRF-CEM, in the test on IGROV-1, with HOP-92, with UO-31, in the test on HT-29 and in the test with SR was > 100 µM (inactive) throughout. The GI50 in the test on OVCAR-8 was > 100 µM (inactive); in the test on HOP-62, > 100 µM (inactive); in the test on SW-620 it was > 100 µM (inactive); in the test with K562, 56.8 µM (inactive); in the test with SF-295 it was > 100 µM (inactive); in the test on T47D, > 100 µM (inactive). Moreover, the GI50 in the test on NCI/ADR-RES, in the test with NCI-H460, in the test with SK-MEL-28, in the test with HL-60, with HCT-116 and in the test on U-251 was > 100 µM (inactive) in each case.
In the case of `CC(=O)Oc1cc2c(n(C)c1=O)CCC2`, the GI50 with CCRF-CEM was > 100 µM (inactive); in the test with IGROV-1 it was > 100 µM (inactive); in the test on HOP-92, > 100 µM (inactive); in the test with UO-31, 99.5 µM (inactive); in the test with HT-29 it was > 100 µM (inactive); in the test on OVCAR-8, 94.4 µM (inactive). The GI50 with OVCAR-5 was > 100 µM (inactive); with HOP-62, > 100 µM (inactive); in the test on SW-620 it was > 100 µM (inactive); in the test on K562, > 100 µM (inactive); with SF-295, > 100 µM (inactive); in the test with NCI/ADR-RES, 35.5 µM (inactive). The GI50 in the test with NCI-H460 is > 100 µM (inactive); in the test on SK-MEL-28, > 100 µM (inactive); in the test on HL-60, 81.5 µM (inactive); with HCT-116 it was > 100 µM (inactive); in the test on U-251, > 100 µM (inactive).
For `C[N+](C)([O-])Cc1cc(-c2ccccc2)ccc1O`, the GI50 in the test with IGROV-1 is > 100 µM (inactive); in the test with HOP-92, > 100 µM (inactive); with UO-31, > 100 µM (inactive); in the test with HT-29 it was > 100 µM (inactive); with SR it was 49.1 µM (inactive); in the test on OVCAR-5, > 100 µM (inactive). The GI50 in the test on HOP-62, with SW-620, with K562, in the test on SF-295, with T47D and in the test on NCI/ADR-RES was > 100 µM (inactive) each time. Moreover, the GI50 in the test with NCI-H460 was 72.8 µM (inactive); in the test on SK-MEL-28, > 100 µM (inactive); in the test on HCT-116, > 100 µM (inactive); in the test with U-251, > 100 µM (inactive).
